Data from PubChem BioAssay AID328 (DTP/NCI, 2004).
Where “and” joins values, the source holds several entries; their conditions need not be identical. Equal entries are not always repeated. Inconclusive results and toxic doses are left out. Residues, ends and D or L forms follow the SMILES beside them. *: point of attachment. Cbz = O=C(OCc1ccccc1)*; NHNH2 = NN*

Test system: BDF1 mice, P388 leukemia ip, median survival T/C
Test: NCI In Vivo Anticancer Drug Screen. Data for tumor model P388 Leukemia (intraperitoneal) in B6D2F1 (BDF1) mice
Conditions: endpoint: median survival time, higher = longer survival
How it was run: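 T/C = treated-group survival ÷ vehicle-control survival; tumour transplanted into mice before dosing.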

[1] = dose: 50.0 mg/kg/injection, schedule: Q01DX009 (ip), vehicle: saline with Tween-80
[2] = dose: 100.0 mg/kg/injection, schedule: Q01DX009 (ip), vehicle: saline with Tween-80
[3] = dose: 100.0 mg/kg/injection, schedule: Q01DX001 (ip), vehicle: saline
[4] = dose: 200.0 mg/kg/injection, schedule: Q01DX001 (ip), vehicle: saline
[5] = dose: 400.0 mg/kg/injection, schedule: Q01DX001 (ip), vehicle: saline
[6] = dose: 200.0 mg/kg/injection, schedule: Q01DX009 (ip), vehicle: saline with Tween-80
[7] = dose: 12.5 mg/kg/injection, schedule: Q01DX009 (ip), vehicle: saline
[8] = dose: 25.0 mg/kg/injection, schedule: Q01DX009 (ip), vehicle: saline
[9] = dose: 50.0 mg/kg/injection, schedule: Q01DX009 (ip), vehicle: saline
[10] = dose: 50.0 mg/kg/injection, schedule: Q04DX003 (ip), vehicle: saline
[11] = dose: 100.0 mg/kg/injection, schedule: Q01DX009 (ip), vehicle: saline
[12] = dose: 200.0 mg/kg/injection, schedule: Q04DX003 (ip), vehicle: saline
[13] = dose: 50.0 mg/kg/injection, schedule: Q04DX003 (ip), vehicle: saline with Tween-80
[14] = dose: 100.0 mg/kg/injection, schedule: Q04DX003 (ip), vehicle: saline with Tween-80
[15] = dose: 200.0 mg/kg/injection, schedule: Q04DX003 (ip), vehicle: saline with Tween-80
[16] = dose: 100.0 mg/kg/injection, schedule: Q04DX003 (ip), vehicle: saline

CCCCCCCCCCCCN(CCC(=O)O)S(=O)(=O)O
T/C (dose: 25.0 mg/kg/injection, schedule: Q01DX009 (ip), vehicle: Klucel (hydroxypropylcellulose) (HPC)): 95 % of control
T/C (dose: 50.0 mg/kg/injection, schedule: Q01DX009 (ip), vehicle: Klucel (hydroxypropylcellulose) (HPC)): 104 % of control
T/C (dose: 75.0 mg/kg/injection, schedule: Q04DX003 (ip), vehicle: Klucel (hydroxypropylcellulose) (HPC)): 100 % of control
T/C (dose: 100.0 mg/kg/injection, schedule: Q01DX009 (ip), vehicle: Klucel (hydroxypropylcellulose) (HPC)): 90 % of control
T/C (dose: 150.0 mg/kg/injection, schedule: Q04DX003 (ip), vehicle: Klucel (hydroxypropylcellulose) (HPC)): 100 % of control

O=C(O)/C=C/c1c(Cl)cccc1Cl
T/C [1]: 106 % of control
T/C [2]: 113 % of control

CCOC(=O)C(OCc1ccccc1)(C(=O)NCCc1ccc(OC)c(OC)c1)C(C)C (stereo unspecified)
T/C (dose: 25.0 mg/kg/injection, schedule: Q04DX003 (ip), vehicle: other): 100 % of control
T/C (dose: 50.0 mg/kg/injection, schedule: Q04DX003 (ip), vehicle: other): 108 % of control
T/C (dose: 100.0 mg/kg/injection, schedule: Q04DX003 (ip), vehicle: other): 93 % of control

CCN1C=C/C(=C\C=C/c2cc[n+](CC)c3ccccc23)c2ccccc21
T/C (dose: 0.13 mg/kg/injection, schedule: Q01DX009 (ip), vehicle: saline): 113 % of control
T/C (dose: 0.25 mg/kg/injection, schedule: Q01DX009 (ip), vehicle: saline): 160 % of control
T/C (dose: 0.27 mg/kg/injection, schedule: Q04DX003 (ip), vehicle: saline): 115 % of control
T/C (dose: 0.4 mg/kg/injection, schedule: Q01DX009 (ip), vehicle: Klucel (hydroxypropylcellulose) (HPC)): 150 % of control
T/C (dose: 0.4 mg/kg/injection, schedule: Q04DX003 (ip), vehicle: saline): 100 % of control and 115 % of control
T/C (dose: 0.5 mg/kg/injection, schedule: Q01DX009 (ip), vehicle: saline): 160 % of control
T/C (dose: 0.62 mg/kg/injection, schedule: Q01DX009 (ip), vehicle: Klucel (hydroxypropylcellulose) (HPC)): 154 % of control
T/C (dose: 0.62 mg/kg/injection, schedule: Q04DX003 (ip), vehicle: saline): 100 % of control and 110 % of control
T/C (dose: 0.66 mg/kg/injection, schedule: Q04DX003 (ip), vehicle: saline): 154 % of control
T/C (dose: 0.82 mg/kg/injection, schedule: Q04DX003 (ip), vehicle: saline): 155 % of control
T/C (dose: 44.0 micrograms/kg/injection, schedule: Q01DX009 (ip), vehicle: saline): 108 % of control

CN1C(=O)NC2C(CO)OC1C2O (stereo unspecified)
T/C [3]: 104 % of control
T/C [4]: 104 % of control
T/C [5]: 100 % of control

CCCCSC1=CC(=O)c2ccccc2C1=O
T/C (dose: 3.12 mg/kg/injection, schedule: Q01DX009 (ip), vehicle: Klucel (hydroxypropylcellulose) (HPC)): 92 % of control and 104 % of control
T/C (dose: 6.25 mg/kg/injection, schedule: Q01DX009 (ip), vehicle: Klucel (hydroxypropylcellulose) (HPC)): 100 % of control and 116 % of control
T/C (dose: 12.5 mg/kg/injection, schedule: Q01DX009 (ip), vehicle: Klucel (hydroxypropylcellulose) (HPC)): 100 % of control and 107 % of control and 108 % of control

O=C(Nc1cc(C(F)(F)F)ccc1Cl)ON1CCCCC1
T/C (dose: 12.5 mg/kg/injection, schedule: Q01DX009 (ip), vehicle: saline with Tween-80): 107 % of control
T/C (dose: 25.0 mg/kg/injection, schedule: Q01DX009 (ip), vehicle: saline with Tween-80): 94 % of control
T/C [1]: 114 % of control and 124 % of control
T/C [2]: 100 % of control and 102 % of control
T/C [6]: 91 % of control

CCOc1ccn(CC(=O)Nc2nccs2)c(=O)n1
T/C [7]: 104 % of control
T/C [8]: 95 % of control
T/C [9]: 104 % of control
T/C [10]: 114 % of control
T/C [11]: 104 % of control
T/C (dose: 200.0 mg/kg/injection, schedule: Q01DX009 (ip), vehicle: saline): 100 % of control
T/C [12]: 106 % of control
T/C (dose: 400.0 mg/kg/injection, schedule: Q01DX009 (ip), vehicle: saline): 94 % of control
T/C (dose: 400.0 mg/kg/injection, schedule: Q04DX003 (ip), vehicle: saline): 97 % of control

Cc1ccc(S(=O)(=O)F)c(Cl)c1
T/C (dose: 50.0 mg/kg/injection, schedule: Q01DX009 (ip), vehicle: other): 91 % of control
T/C [13]: 100 % of control
T/C (dose: 100.0 mg/kg/injection, schedule: Q01DX009 (ip), vehicle: other): 91 % of control
T/C [14]: 104 % of control
T/C (dose: 200.0 mg/kg/injection, schedule: Q01DX009 (ip), vehicle: other): 91 % of control
T/C [15]: 109 % of control

CC1=CC(c2ccccc2)=CC(C)(C)C1 (tested in a mixture with another compound)
T/C (dose: 25.0 mg/kg/injection, schedule: Q01DX009 (ip), vehicle: saline sonified): 104 % of control
T/C (dose: 50.0 mg/kg/injection, schedule: Q01DX009 (ip), vehicle: saline sonified): 109 % of control
T/C (dose: 100.0 mg/kg/injection, schedule: Q01DX009 (ip), vehicle: saline sonified): 109 % of control

O=C1OC2=C(Cl)C=CC=CC2C12C1C=CC=CC12 (stereo unspecified)
T/C [1]: 113 % of control
T/C [2]: 110 % of control
T/C [6]: 107 % of control

O=[N+]([O-])c1ccc(NCCO)c([N+](=O)[O-])c1
T/C [1]: 101 % of control
T/C [2]: 107 % of control
T/C [6]: 113 % of control

CCN(CC)CCCC(C)Nc1ccnc2cc(Cl)ccc12 (stereo unspecified)
T/C (dose: 6.2 mg/kg/injection, schedule: Q01DX010 (ip), vehicle: saline): 100 % of control
T/C [7]: 113 % of control
T/C (dose: 12.5 mg/kg/injection, schedule: Q01DX010 (ip), vehicle: saline): 90 % of control
T/C [8]: 109 % of control
T/C (dose: 25.0 mg/kg/injection, schedule: Q01DX010 (ip), vehicle: saline): 95 % of control
T/C [9]: 109 % of control
T/C (dose: 50.0 mg/kg/injection, schedule: Q01DX010 (ip), vehicle: saline): 100 % of control
T/C (dose: 75.0 mg/kg/injection, schedule: Q01DX009 (ip), vehicle: saline): 104 % of control

COC(=O)CCC(=O)/C=C1/Nc2ccccc2C1=O
T/C [10]: 90 % of control
T/C [16]: 110 % of control
T/C [12]: 120 % of control

C=CCN(CC=C)P(=O)(N1CC1C)N1CC1C (stereo unspecified)
T/C (dose: 0.2 mg/kg/injection, schedule: Q01DX009 (ip), vehicle: saline): 101 % of control
T/C (dose: 0.4 mg/kg/injection, schedule: Q01DX009 (ip), vehicle: saline): 106 % of control

O=C(O)/C=C/c1ccccc1C(=O)O
T/C [3]: 100 % of control
T/C [4]: 100 % of control
T/C [5]: 109 % of control

O=S1(=O)C(C(O)(c2ccccc2)c2ccccc2)CCCN1c1ccccc1 (stereo unspecified)
T/C [1]: 100 % of control
T/C [2]: 91 % of control
T/C [6]: 97 % of control

C=CCNc1ncnc2c1cnn2C
T/C [8]: 95 % of control and 104 % of control
T/C [9]: 109 % of control
T/C [10]: 118 % of control
T/C [11]: 104 % of control
T/C [16]: 109 % of control
T/C [12]: 90 % of control

CC(C)C(NC(=O)C1CCCN1C(=O)OCc1ccccc1)C(=O)NN (stereo not drawn) (Cbz-Pro-Val-NHNH2; configuration not given here)
T/C [13]: 100 % of control
T/C [14]: 100 % of control
T/C [15]: 91 % of control
T/C (dose: 400.0 mg/kg/injection, schedule: Q04DX003 (ip), vehicle: saline with Tween-80): 100 % of control

COc1cc([N+](=O)[O-])c2c(ccc[n+]2C)c1OC
T/C (dose: 50.0 mg/kg/injection, schedule: Q01DX001 (ip), vehicle: saline with Tween-80): 100 % of control
T/C (dose: 100.0 mg/kg/injection, schedule: Q01DX001 (ip), vehicle: saline with Tween-80): 91 % of control
T/C (dose: 200.0 mg/kg/injection, schedule: Q01DX001 (ip), vehicle: saline with Tween-80): 112 % of control

CSc1ccc(NC(=O)C(O)C(O)C(O)C(O)CO)cc1 (stereo unspecified)
T/C (dose: 75.0 mg/kg/injection, schedule: Q01DX009 (ip), vehicle: saline with Tween-80): 100 % of control
T/C (dose: 100.0 mg/kg/injection, schedule: Q04DX003 (ip), vehicle: saline sonified): 104 % of control
T/C (dose: 150.0 mg/kg/injection, schedule: Q01DX009 (ip), vehicle: saline with Tween-80): 100 % of control
T/C (dose: 200.0 mg/kg/injection, schedule: Q04DX003 (ip), vehicle: saline sonified): 104 % of control
T/C (dose: 300.0 mg/kg/injection, schedule: Q01DX009 (ip), vehicle: saline with Tween-80): 100 % of control
T/C (dose: 400.0 mg/kg/injection, schedule: Q04DX003 (ip), vehicle: saline sonified): 104 % of control

CC(C)OC(=O)c1ccc(C(C)C)cc1
T/C [2]: 110 % of control
T/C [6]: 117 % of control
